In ChEMBL document CHEMBL5113375, “Development of Mcl-1 inhibitors for cancer therapy” (Eur J Med Chem, 2021) one finds Ki, IC50 and Kd data, which are given here for 20 compounds.

The target in assay [1] is T1, BCL2/BID (Homo sapiens, UniProt P10415). Put plainly: Binding affinity to Bcl-2/Bid (unknown origin) by fluorescence polarization assay. It is filed as protein assay.
The target of assay [2] is Bcl-xL/BH3-interacting domain death agonist (Homo sapiens, UniProt Q07817). Nature of the assay: Binding affinity to Bcl-xL/Bid (unknown origin) by fluorescence polarization assay. It is filed as protein assay. A general note: Polarisation of emitted light reports the rotation of a fluorescent probe.
In assay [3] the target is T2, Induced myeloid leukemia cell differentiation protein Mcl-1/BH3-interacting domain death agonist (Homo sapiens, UniProt Q07820). Nature of the assay: Binding affinity to Mcl-1/Bid (unknown origin) by fluorescence polarization assay. The assay is classed as protein assay.
Assay [4] in a line: Cytotoxicity against human MOLP8 cells by caspase-3/7 activation. The assay is classed as functional, cell-based. The settings on record: MOLP-8.
A short description of assay [5]: Inhibition of Mcl-1 (172 - 327 residues)/Noxa (unknown origin) by fluorescence polarization assay. Also noted: species or system Homo sapiens.
The target of assay [6] is T3, Bcl-xL/Bcl-2-like protein 11 (Homo sapiens, UniProt Q07817). Nature of the assay: Inhibition of GST-tagged Bcl-xL/Bim (unknown origin) incubated for 15 mins followed by Bim addition measured after 2 hrs by ELISA method. It is filed as protein assay. In general terms: ELISA stands for enzyme-linked immunosorbent assay.
Assay [7] addresses T4, Induced myeloid leukemia cell differentiation protein Mcl-1/Bcl-2-like protein 11 (Homo sapiens, UniProt Q07820). Put plainly: Inhibition of GST-tagged Mcl-1/Bim (unknown origin) incubated for 15 mins followed by Bim addition measured after 2 hrs by ELISA method. The assay is classed as protein assay.
For assay [8], the target named is T5, Induced myeloid leukemia cell differentiation protein Mcl-1 (Homo sapiens, UniProt Q07820). Nature of the assay: Binding affinity to wildtype Mcl-1 (unknown origin) assessed as dissociation constant by SPR analysis.
Assay [9] is described as follows: Binding affinity to Mcl-1 H224A (unknown origin) assessed as dissociation constant by SPR analysis. Also noted: species or system Homo sapiens. A general note: In SPR one partner is held on a chip, and binding of the other changes the refractive index at the surface.
A further assay deals with HeLa. Put plainly: Cytotoxicity against human HeLa cells. It is filed as functional, cell-based.
Another assay relates to K562. Put plainly: Cytotoxicity against human K562 cells. The assay is classed as functional, cell-based.
In assay [10] the target is T4, Induced myeloid leukemia cell differentiation protein Mcl-1/Bcl-2-like protein 11. Nature of the assay: Inhibition of Mcl-1/Bim (unknown origin) by ELISA method. The assay is classed as protein assay.
The target in another assay is BCL2/BCL2L11 (Homo sapiens, UniProt P10415). Nature of the assay: Inhibition of Bcl-2/Bim (unknown origin) by ELISA method. The assay is classed as protein assay.
Assay [11] addresses T2, Induced myeloid leukemia cell differentiation protein Mcl-1/BH3-interacting domain death agonist. Put plainly: Binding affinity to Mcl-1/Bid (unknown origin) assessed as inhibition constant by fluorescence polarization assay. It is filed as protein assay.
Assay [12] has as its target T3, Bcl-xL/Bcl-2-like protein 11. Put plainly: Binding affinity to Bcl-xL/Bim (unknown origin) assessed as inhibition constant by fluorescence polarization assay. The assay is classed as protein assay.
Assay [13] has as its target T1, BCL2/BID. Nature of the assay: Binding affinity to Bcl-2 /Bid (unknown origin) assessed as inhibition constant by fluorescence polarization assay. The assay is classed as protein assay.
Assay [14] concerns the target T3, Bcl-xL/Bcl-2-like protein 11. Nature of the assay: Inhibition of Bcl-xL/Bim (unknown origin) by ELISA method. The assay is classed as protein assay.
Assay [15] addresses T6, MCL1-BAK1 complex (Homo sapiens, UniProt Q07820). Nature of the assay: Binding affinity to Mcl-1/Bak (unknown origin) assessed as inhibition constant by fluorescence polarization assay. The assay is classed as protein-complex assay.
The target in assay [16] is T5, Induced myeloid leukemia cell differentiation protein Mcl-1. Put plainly: Binding affinity to Mcl-1 (unknown origin) assessed as inhibition constant by fluorescence polarization assay.
The target of assay [17] is Apoptosis regulator Bcl-2/Bcl-2 homologous antagonist/killer (Homo sapiens, UniProt P10415+Q16611). Put plainly: Inhibition of Bcl-2/Bak (unknown origin). The assay is classed as protein assay.
The target of another assay is T7, BCL2A1/BAK1 (Homo sapiens, UniProt Q16548+Q16611).
T7 sequence (Q16611 whole entry): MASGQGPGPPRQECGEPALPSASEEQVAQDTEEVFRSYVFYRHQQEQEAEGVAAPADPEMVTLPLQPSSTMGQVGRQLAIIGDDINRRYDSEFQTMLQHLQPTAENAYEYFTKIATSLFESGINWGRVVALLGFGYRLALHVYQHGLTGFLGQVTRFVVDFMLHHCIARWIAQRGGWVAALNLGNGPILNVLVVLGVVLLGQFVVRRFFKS
T7 sequence (Q16548 whole entry): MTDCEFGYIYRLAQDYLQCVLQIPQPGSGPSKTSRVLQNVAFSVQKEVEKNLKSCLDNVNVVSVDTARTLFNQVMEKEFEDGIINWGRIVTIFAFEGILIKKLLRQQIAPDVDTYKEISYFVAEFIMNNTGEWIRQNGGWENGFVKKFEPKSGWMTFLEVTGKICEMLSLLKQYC
Nature of the assay: Inhibition of Bfl-1/Bak (unknown origin). The assay is classed as protein assay.

Assay [18] has as its target T8, Bcl-xL/BAK (Homo sapiens, UniProt Q07817). Put plainly: Inhibition of Bcl-xL/Bak (unknown origin) by fluorescence polarization assay. The assay is classed as protein assay.
Assay [19] has as its target T6, MCL1-BAK1 complex. Nature of the assay: Inhibition of Mcl-1/Bak (unknown origin) by fluorescence polarization assay. The assay is classed as protein-complex assay.
The target of assay [20] is T8, Bcl-xL/BAK. Nature of the assay: Binding affinity to Bcl-xL/Bak (unknown origin) assessed as dissociation constant by ITC method. It is filed as protein assay.

T1 sequence (P10415 whole entry, the tested form may be a part): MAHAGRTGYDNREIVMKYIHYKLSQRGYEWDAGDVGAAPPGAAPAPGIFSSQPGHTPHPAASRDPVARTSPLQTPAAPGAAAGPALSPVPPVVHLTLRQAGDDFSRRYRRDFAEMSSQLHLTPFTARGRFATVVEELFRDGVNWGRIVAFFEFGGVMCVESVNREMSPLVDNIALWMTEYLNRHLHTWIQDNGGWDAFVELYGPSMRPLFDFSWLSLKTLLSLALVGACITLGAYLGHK
T1 sequence (P55957 whole entry, further chain, the tested form may be a part): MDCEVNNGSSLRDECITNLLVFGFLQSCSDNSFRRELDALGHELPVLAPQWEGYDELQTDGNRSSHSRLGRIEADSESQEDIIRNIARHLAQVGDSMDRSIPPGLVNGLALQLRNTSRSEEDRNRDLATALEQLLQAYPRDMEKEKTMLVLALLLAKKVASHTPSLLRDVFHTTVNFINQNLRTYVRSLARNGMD
T6 sequence (Q07820 whole entry, one chain of several): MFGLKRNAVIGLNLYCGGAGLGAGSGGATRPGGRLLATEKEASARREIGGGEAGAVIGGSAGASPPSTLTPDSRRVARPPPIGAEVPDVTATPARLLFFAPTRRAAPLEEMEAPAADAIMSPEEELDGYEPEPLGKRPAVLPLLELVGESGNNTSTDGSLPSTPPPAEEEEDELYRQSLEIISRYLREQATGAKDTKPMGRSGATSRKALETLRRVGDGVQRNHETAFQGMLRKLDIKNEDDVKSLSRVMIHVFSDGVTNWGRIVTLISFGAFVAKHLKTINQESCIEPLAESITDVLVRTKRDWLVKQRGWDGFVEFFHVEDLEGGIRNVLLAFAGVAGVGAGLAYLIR
T5 sequence (Q07820 whole entry): as the sequence (Q07820 whole entry, one chain of several) above
T2 sequence (Q07820 whole entry, the tested form may be a part): as the sequence (Q07820 whole entry, one chain of several) above
T2 sequence (P55957 whole entry, further chain, the tested form may be a part): as the sequence (P55957 whole entry, further chain, the tested form may be a part) above
T4 sequence (Q07820 whole entry): as the sequence (Q07820 whole entry, one chain of several) above
T4 sequence (O43521 whole entry, further chain): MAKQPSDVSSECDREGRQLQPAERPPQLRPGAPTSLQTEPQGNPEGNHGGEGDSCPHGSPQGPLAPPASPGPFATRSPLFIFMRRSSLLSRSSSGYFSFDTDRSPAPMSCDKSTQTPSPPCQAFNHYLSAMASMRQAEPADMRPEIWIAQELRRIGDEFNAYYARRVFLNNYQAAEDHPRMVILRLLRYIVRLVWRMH
T8 sequence (Q07817 whole entry, one chain of several): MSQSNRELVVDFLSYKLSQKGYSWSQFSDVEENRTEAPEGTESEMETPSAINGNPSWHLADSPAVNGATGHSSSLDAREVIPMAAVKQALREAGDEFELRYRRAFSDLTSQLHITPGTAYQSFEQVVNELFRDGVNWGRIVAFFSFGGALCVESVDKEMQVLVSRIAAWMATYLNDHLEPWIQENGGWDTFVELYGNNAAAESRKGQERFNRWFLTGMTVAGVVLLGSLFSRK
T3 sequence (Q07817 whole entry): as the sequence (Q07817 whole entry, one chain of several) above
T3 sequence (O43521 whole entry, further chain): as the sequence (O43521 whole entry, further chain) above
Sequence of BCL2/BCL2L11 (P10415 whole entry, the tested form may be a part): as the sequence (P10415 whole entry, the tested form may be a part) above
Sequence of BCL2/BCL2L11 (O43521 whole entry, further chain, the tested form may be a part): as the sequence (O43521 whole entry, further chain) above
Sequence of Apoptosis regulator Bcl-2/Bcl-2 homologous antagonist/killer (P10415 whole entry, one chain of several): as the sequence (P10415 whole entry, the tested form may be a part) above
Sequence of Bcl-xL/BH3-interacting domain death agonist (Q07817 whole entry, the tested form may be a part): as the sequence (Q07817 whole entry, one chain of several) above
Sequence of Bcl-xL/BH3-interacting domain death agonist (P55957 whole entry, further chain, the tested form may be a part): as the sequence (P55957 whole entry, further chain, the tested form may be a part) above

What is called Ki is a dissociation constant, usually derived from enzyme kinetics or from competition with a known ligand. With `O=C(Cn1nnc(-c2ccccc2Oc2ccc(Cl)cc2Cl)n1)NNC(=S)Nc1ccc([N+](=O)[O-])cc1`, the results for the Ki (on BCL2/BID [1]; in [2]; in assay [3]) were 1900 nM, 3500 nM and 2200 nM, respectively.
As usually defined, the IC50 is the concentration that gives 50% inhibition. `Cc1c(-c2cccc3c(CCCOc4cccc5ccccc45)c(C(=O)O)[nH]c23)c(COc2ccc(B(O)O)c(C=O)c2)nn1C`: the midpoint of inhibition in [4], the IC50, lay at 460 nM.
`Cc1ccc(-c2ccc(C(=O)O)c(NS(=O)(=O)c3ccccc3)c2)c2ccccc12`: the half-maximal inhibitory concentration (IC50) in assay [5] is 400 nM.
With `O=C(c1ccc(SCc2ccccc2)cc1O)c1[nH]c(Cl)c(Cl)c1-n1cc(Cl)c(Cl)c1C(=O)c1ccc(SCc2ccccc2)cc1O`, the IC50 was 600 nM in [6] and 700 nM in assay [7].
The term Kd denotes the free concentration of one partner at which half of the binding sites on the other are occupied at equilibrium, for simple one-to-one binding. In the case of `O=C1CCC(N2C(=O)c3cccc4c(Sc5ccc(Br)cc5)ccc(c34)C2=O)C(=O)N1` (stereo not drawn), the Kd in assay [8] was determined as 150 nM; in assay [9], 130 nM. Moreover, the IC50 in the assay with HeLa amounted to 10400 nM; in the assay on K562, 7300 nM; in assay [10], 150 nM; against BCL2/BCL2L11 it was 430 nM.
For `CCOC(=O)C1=CN=c2s/c(=C\c3cn(Cc4ccccc4)c4ccccc34)c(=O)n2[C@@H]1c1cccc(C(C)=O)c1`, the Ki in assay [11] turned out to be 290 nM; in assay [12], 290 nM; at BCL2/BID [13] it was 540 nM.
On to `COC(=O)c1ccc(C(=O)c2c(Cl)c(Cl)c3n2-c2c([nH]c(Cl)c2Cl)C(=O)c2ccc(C(=O)OC)cc2O3)c(O)c1`, for which the IC50 in [10] worked out at 4300 nM; in assay [14], 3400 nM.
Regarding `N#CC1=C(C#N)c2ccc(Sc3ccc(Br)cc3)c3cccc(c23)C1=O`, the figures for the Kd in [8] and in assay [9] were 430 nM and 410 nM, respectively.
The compound `CCc1nn(C)c(CC)c1-c1cccc2c(CCCOc3cccc4ccccc34)c(C(=O)O)n(CCN3CCOCC3)c12` had an IC50 in [4] of 350 nM.
For `CC1=C[C@@H](/C=C(\C)c2ccc(C(=O)O)cc2)[C@]2(C(=O)O)C=C[C@@H](CCOC(=O)c3ccc(Oc4cccnc4)cc3)C[C@@H]2C1`, the Ki in assay [11] was 106 nM; on MCL1-BAK1 complex [15] it was 153 nM.
Turning to `CCOC(=O)C1=C(C)N=c2s/c(=C\c3cn(Cc4ccc(-c5ccccc5)cc4)c4ccccc34)c(=O)n2C1c1ccccc1` (stereo not drawn), the Ki in [16] was 200 nM.
Regarding `CC1=C(C2=C(C)C(=O)c3c(cc(O)c(O)c3Cc3ccccc3)C2=O)C(=O)c2cc(O)c(O)c(Cc3ccccc3)c2C1=O`, the figures for the IC50 (in [17]; at BCL2A1/BAK1) were 31000 nM and 25000 nM, respectively.
`CCOC(=O)C1=CN=c2s/c(=C\c3cn(Cc4ccccc4)c4ccccc34)c(=O)n2[C@H]1c1cccc(C(C)=O)c1`: the inhibitory constant (Ki) in [11] worked out at 740 nM; in [12], 340 nM; at BCL2/BID [13], 590 nM.
In the case of `C[n+]1cc2cc3c(cc2c2ccc4cc5c(cc4c21)OCO5)OCO3`, the figures for the 50% inhibitory concentration (IC50) on Bcl-xL/BAK [18] and against MCL1-BAK1 complex [19] were 19000 nM and 44000 nM, respectively.
Consider `CC(C)COc1nc(Oc2ccccc2)ccc1C(=O)O`, for which, on MCL1-BAK1 complex [15], the inhibition constant (Ki) stood at 261000 nM.
`Cc1c(-c2cccc3c(CCCOc4cccc5ccccc45)c(C(=O)O)[nH]c23)c(COc2ccc(B(O)O)cc2)nn1C`: the IC50 in assay [4] was above 11000 nM.
Consider `O=C(NCCNS(=O)(=O)c1sccc1-c1ccccc1Oc1ccc(O)c(O)c1)Nc1cc(C(F)(F)F)cc(C(F)(F)F)c1`, for which the inhibition constant Ki in assay [16] was 298 nM; at BCL2/BID [1], 1200 nM; in assay [3], 330 nM.
For `CC(C)C(C(=O)O)N1C(=O)/C(=C/c2ccc(Br)cc2)SC1=S` (stereo not drawn), the concentration for half-maximal inhibition (IC50) against Bcl-xL/BAK [18] worked out at 91000 nM; against MCL1-BAK1 complex [19] it was 110000 nM. Besides, the Ki on MCL1-BAK1 complex [15] is 44000 nM. The dissociation constant (Kd) at Bcl-xL/BAK [20] turned out to be 8700 nM.
In assay [4], `CC(=O)c1cc(OCc2nn(C)c(C)c2-c2cccc3c(CCCOc4cccc5ccccc45)c(C(=O)O)[nH]c23)ccc1B(O)O` displayed a half-maximal inhibitory concentration (IC50) of 170 nM.
Take `COc1ccc(CSc2ccc(C(=O)c3[nH]c(Cl)c(Cl)c3-n3cc(Cl)c(Cl)c3C(=O)c3ccc(SCc4ccc(OC)cc4)cc3O)c(O)c2)cc1`: the 50% inhibitory concentration (IC50) in assay [6] amounted to 600 nM; in [7] it was 700 nM.
